Read-outs that look alike come from different tables or passages of the source.
How the values were obtained:
[1] = tested on: L. donovani IRFP intramacrophagic amastigotes; assay: Dose-response assay on ex vivo infected splenic explants (intramacrophagic amastigotes); assay type: cell-based, Leishmania donovani; conditions: read-out: EC50 Intramacrophagic Amastigotes
[2] = Cytotoxicity in RAW 264.7 cells (alamarBlue, 72 h); conditions: mouse
Procedure: (§1) To this end, we calculated SIs from 16 preselected results from the ex vivo system. With this aim, dose–response curves were performed in duplicate across at least three independent experiments using RAW 264.7 mouse macrophages (as a model of host cells harboring amastigotes) and HepG2 (as a model for assessing systemic toxicity).
(§2) To evaluate the safety of the selected compounds, two cell lines were employed: RAW 264.7 (a mouse macrophage-derived cell line) and HepG2 (a human hepatoma cell line). Furthermore, to determine the intestinal tolerance relevant to potential oral administration, mouse intestinal organoids were prepared.
(§3) RAW 264.7 and HepG2 were routinely cultured under standard conditions. RAW 264.7 cells were maintained in RPMI medium (Gibco) supplemented with, 25 mM HEPES, 24 mM NaHCO3, 2 mM L-glutamine, mixture of antibiotics and 10% FBS. HepG2 cells were cultured in DMEM/F-12 (Gibco) and supplemented 10% of FBS. For cytotoxicity assays, 10,000 cells per well were seeded into 96-well plates and incubated overnight at 37 °C with 5% of CO2. Subsequently, 2-fold serial dilutions of the compounds were added and incubated for 72 h. Cell viability using the alamarBlue™ assay according to the manufacturer’s instructions, and fluorescence was measured with a Varioskan™ LUX microplate reader (ThermoFisher Scientific, Waltham, MA, USA). Non-linear regression analyses were performed using SigmaPlot^TM software (version 10.0) to calculate CC50. Data were obtained from at least three independent experiments performed in duplicate.

[3] = tested on: L. donovani IRFP axenic amastigotes; assay: Primary single-concentration screening on axenic amastigotes, growth inhibition at 72 h; assay type: cell-based, Leishmania donovani; conditions: axenic amastigotes; for inhibition at 1 µM / inhibition at 10 µM: Leishmania donovani; for inhibition at 1 µM / Growth Inhibition (%) at 72h, 1 µM_Exp1 / Growth Inhibition (%) at 72h, 1 µM_Exp2: 1 µM; for inhibition at 10 µM / Growth Inhibition (%) at 72h, 10 µM_Exp1 / Growth Inhibition (%) at 72h, 10 µM_Exp2: 10 µM
[4] = tested on: L. donovani IRFP axenic amastigotes; assay: Dose-response assay on axenic amastigotes; assay type: cell-based, Leishmania donovani
Procedure: The objective of the present study was to identify new antileishmanial drug candidates by screening a commercial library of plant-derived alkaloids using a platform based on axenic amastigotes of L. donovani IRFP—the causative agent of VL—genetically modified to emit infrared fluorescence during their viable stage (hereafter referred to as L. donovani IRFP). To this end, single-dose assays at 10 μM and 1 μM, as well as dose–response assays, were performed. Compounds showing significant activity in the initial screening were subsequently clustered according to chemical structure using the DataWarrior tool, and representative compounds were further evaluated in dose response assays against axenic amastigotes.
Female Balb/c mice aged from 6 to 8 weeks were intraperitoneally inoculated with 1.5 × 10^9 infective L. donovani IRFP metacyclic promastigotes. Between 8 and 12 weeks after infection, mice were humanely euthanised and bone marrow was collected from the femurs and tibias of both hind limbs. The bones were cut at both ends, and prewarmed PBS was flushed through the medullary cavity using a syringe fitted with a 27G needle, to extract the bone marrow cells. The resulting cell suspension was filtered through a 100 µm cell strainer and centrifuged at 2500 rpm for 10 min at room temperature. To obtain free amastigotes, the pelleted cells were resuspended within a 75 mL ventilated flask in amastigote culture medium (15 mM KCl; 136 mM KH2PO4; 10 mM K2HPO4.3H2O; 0.5 mM MgSO4.7 H2O; 24 mM NaHCO3; 22 mM glucose; 1 mM glutamine, 1x RPMI 1640 vitamin mix (Sigma-Aldrich, Merck, Darmstadt, Germany), 10 mM folic acid, […], 1x RPMI amino acid mix (Sigma-Aldrich, Merck, Darmstadt, Germany), […], antibiotic mixture, 25 mM MES, 10% FBS (Gibco, ThermoFisher Scientific, Waltham, MA, USA) and incubated at 37 °C in a humidified atmosphere containing 5% CO2 [46].
The efficacy of the selected compounds was assessed by measuring near-infrared fluorescence (700 nm) using an Odyssey Infrared Imaging System (Li-Cor, Lincoln, NE, USA) following the previously described protocols.

[5] = Tolerance of mouse intestinal organoids (alamarBlue); assay type: cell-based; conditions: C57BL/6, mouse
Text: (§4) Mouse intestinal organoids were generated following protocols standardized previously. Briefly, to obtain adult intestine stem cells, C57BL/6 mice were humanely euthanized. A section of the duodenum was excised, rinsed in ice-cold PBS, and cut into small pieces for gentle dissociation using Gentle Cell Dissociation Reagent. Tissue fragments enriched in duodenal crypts and little tissue debris were microscopically selected and resuspended in a 1:1 mixture of Geltrex™ and IntestiCult™ Mouse Medium (Gibco, ThermoFisher Scientific, Waltham, MA, USA /Stemcell Technologies^TM, Vancouver, BC, Canada). Aliquots of 50 µL of this suspension were dispensed into the center of each well of a prewarmed 24-well plate to form domes containing organoids, which were then incubated to allow matrix polymerization. Then, […] of IntestiCult™ Mouse Medium was added to each well. The plate was incubated at 37 °C in a humidified atmosphere containing 5% CO2, and the culture medium was refreshed every 48 h. During this period, organoids continued to proliferate, and passaging was performed at a 1:4 ratio every 7–10 days.
(§5) To determine the in vitro tolerance to oral administration of the active compounds, a 384-well assay was adapted from the protocol described by Du and co-workers. Briefly, following medium removal, organoids were collected from the extracellular matrix using the same procedure as for passaging. The resulting pellet was resuspended in 3.2 mL of a 1:1 mixture of Geltrex™ LDEV-Free Reduced Growth Factor Basement Membrane Matrix (without phenol red, Gibco) and IntestiCult™ Mouse Medium. Using a chilled pipette dispenser, 8 µL of the organoid suspension was dispensed into pre-cooled 384-well plates, which were then gently agitated to evenly distribute the matrix. The plates were incubated at 37 °C for 10 min and then, 32 µL of IntestiCult™ Mouse Medium was added to each well. To prevent edge effects, 100 µL of sterile water was added to the perimeter wells. After 3 days of culture, 10 µL per well of the test compounds dissolved in IntestiCult™ Mouse Medium were added. Positive (0.03% H2O2) and negative (0.2% DMSO) controls were included in each assay. After 72 h of incubation, 5 µL of alamarBlue™ HS were added to each well, and fluorescence was measured after 24 h using a Varioskan™ LUX microplate reader. All assays were conducted in triplicate and repeated in at least three independent experiments.

[6] = Cytotoxicity in HepG2 cells (alamarBlue, 72 h); conditions: human
Procedure: as §1, §2, §3

Leishmania amazonensis = tested on: Leishmania amazonensis; parameters: method as in PMID 25029171; conditions: cited from earlier work
[7] = tested on: axenic amastigotes of L. amazonensis; parameters: method as in PMID 25029171; conditions: compared with glucantime; cited from earlier work
RAW 264.7 = assay: Cytotoxicity in RAW 264.7 cells (alamarBlue, 72 h); conditions: read-out: CC50 RAW 264.7; 72 h, alamarBlue
Procedure: as §1, §2, §3

[8] = tested on: mouse intestinal organoids; assay: Tolerance of mouse intestinal organoids (alamarBlue); assay type: cell-based; conditions: for CC50: 72 h incubation, Figure S4
Text: as §4, §5

HepG2 = assay: Cytotoxicity in HepG2 cells (alamarBlue, 72 h); conditions: read-out: CC50 HepG2; 72 h, alamarBlue
Procedure: as §1, §2, §3

[9] = Leishmania donovani, Splenocyte, primary cultures of infected mouse splenocytes
[10] = experiment 1, 72 h, read-out: Growth Inhibition (%) at 72h, 1 µM_Exp1
[11] = experiment 2, 72 h, read-out: Growth Inhibition (%) at 72h, 1 µM_Exp2
[12] = experiment 1, 72 h, read-out: Growth Inhibition (%) at 72h, 10 µM_Exp1
[13] = experiment 2, 72 h, read-out: Growth Inhibition (%) at 72h, 10 µM_Exp2
[14] = mouse intestinal organoids (from duodenal crypts), 72 h incubation, Figure S4, read-out: CC50 mouse intestinal organoids
[15] = primary cultures of infected mouse splenocytes

| SMILES | EC50 [1, 9] [nM] | CC50 at 72 h ([2]; RAW 264.7 macrophage cells) [nM] | inhibition at 1 µM [3, 10] [%] | inhibition at 1 µM [3, 11] [%] | inhibition at 10 µM [3, 12] [%] | inhibition at 10 µM [3, 13] [%] | IC50 ([4]; Leishmania donovani) [nM] | CC50 at 72 h ([6]; HepG2 hepatoma cells) [nM] | EC50 [1, 15] [nM] | CC50 (RAW 264.7) [nM] | Growth Inhibition (%) at 72h, 1 µM_Exp1 ([3]; experiment 1, 72 h) [%] | Growth Inhibition (%) at 72h, 1 µM_Exp2 ([3]; experiment 2, 72 h) [%] | Growth Inhibition (%) at 72h, 10 µM_Exp1 ([3]; experiment 1, 72 h) [%] | Growth Inhibition (%) at 72h, 10 µM_Exp2 ([3]; experiment 2, 72 h) [%] | IC50 [4] [nM] | CC50 [8] [nM] | CC50 (HepG2) [nM] | also measured |
| --- | --- | --- | --- | --- | --- | --- | --- | --- | --- | --- | --- | --- | --- | --- | --- | --- | --- | --- |
| COc1cc2c(cc1OC)-c1c(C)c3ccc(OC)c(OC)c3c[n+]1CC2 [Dehydrocorydaline] | 2680 ± 110 | > 10000 | 19.1 | -42.6 | 81.7 | 88.3 | 2810 ± 490 | > 10000 |  |  |  |  |  |  |  |  |  | CC50 at 72 h [5, 14]: > 50000 nM |
| COc1ccc2c(c[n+](C)c3c4cc5c(cc4ccc23)OCO5)c1OC [Chelerythrine] | 1610 ± 50 |  | 97.2 | 95.7 | 100 | 101 | 80 ± 10 |  |  |  |  |  |  |  |  |  |  | antileishmanial effect in vivo (Leishmania amazonensis): moderate; CC50 at 72 h [2]: 5510 ± 160 nM; in vitro IC50 values against axenic amastigotes of L. amazonensis [7]: very similar to those of glucantime; CC50 at 72 h [6]: 5500 ± 640 nM |
| COc1ccc2cc3[n+](cc2c1OC)CCc1cc2c(cc1-3)OCO2 [Berberine] | 1760 ± 60 | > 20000 |  |  |  |  | 570 ± 80 | > 20000 |  |  |  |  |  |  |  |  |  | CC50 at 72 h [5, 14]: > 25000 nM |
| COc1ccc2c(C)c3[n+](cc2c1OC)CCc1cc2c(cc1-3)OCO2 [13-Methylberberine] |  |  |  |  |  |  |  |  | 750 ± 20 | > 10000 | 58.33 | 69.84 | 86.05 | 98.60 | 500 ± 40 | > 10000 | 28300 ± 9180 |  |
| COc1cc2c[n+](C)c3c4cc5c(cc4ccc3c2cc1OC)OCO5 [Nitidine] | 650 ± 30 | 2010 ± 160 | 45 | 69.6 | 100 | 99.7 | 270 ± 10 | 490 ± 20 |  |  |  |  |  |  |  |  |  | antileishmanial effect in vivo (Leishmania amazonensis): moderate; in vitro IC50 values against axenic amastigotes of L. amazonensis [7]: very similar to those of glucantime |
| c1c2c(cc3c1OCO3)-c1cc3ccc4c(c3c[n+]1CC2)OCO4 [Coptisine] |  |  |  |  |  |  | 2850 ± 250 |  |  |  |  |  |  |  |  |  |  | EC50 ([1]; Leishmania donovani, Splenocyte, in Mus musculus): 3390 ± 230 nM; CC50 at 72 h [2]: > 10000 nM; CC50 at 72 h [5]: > 25000 nM; CC50 at 72 h [6]: > 10000 nM |
| COc1ccc2c(c1OC)C(OC)N(C)c1c-2ccc2cc3c(cc12)OCO3 (stereo not shown) [Angoline] |  |  |  |  |  |  |  |  | 1150 ± 40 | 5280 ± 280 | 83.55 | 85.33 | 100.85 | 100.07 | 120 ± 10 | 12600 ± 600 | 5150 ± 210 | Toxicity in mouse intestinal organoids (tolerance for oral administration) ([8]; in words): significant toxicity |
| c1c2c(cc3c1OCO3)-c1cc3cc4c(cc3c[n+]1CC2)OCO4 [Pseudocoptisine] |  |  |  |  |  |  |  |  | 1430 ± 70 | > 10000 | 65.54 | 88.42 | 97.95 | 99.04 | 810 ± 120 | > 10000 | > 10000 |  |
